The values below come from ChEMBL document CHEMBL1201862, “PubChem BioAssay data set” (2004).

Structures are written as SMILES.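 Method: 48-hour compound exposure of cells in 96-well plates, five concentrations, linear interpolation of endpoints. At the GI50, growth is halved.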 The source made the active and inactive calls. Rule as the data show it: active = GI50 up to about 1.1 µM and inactive = higher.

Test in all cases: NCI tumour cell line growth inhibition, 48 h
Assay [1] relates to A549.
Assay [2] concerns DU-145.
In assay [3] the test system is EKVX.
In assay [4] the test system is HCT-116.
Assay [5] relates to HOP-62.
Assay [6] deals with MCF7.
Assay [7] relates to MDA-MB-435.
Assay [8] relates to MDA-N.
Assay [9] relates to MOLT-4.
The test system of assay [10] is NCI-H460.
Assay [11] has as its system NCI-H522.
Assay [12] concerns OVCAR-3.
The test system of assay [13] is OVCAR-4.
Assay [14] relates to RXF 393.
For assay [15], the system named is SN12C.
Assay [16] concerns SR.
The subject of assay [17] is TK-10.
The subject of assay [18] is U-251.
Assay [19] deals with OVCAR-8.

As to `COc1ccc(C2(CC(C)C)CCN(S(=O)(=O)c3ccc(C)cc3)C2)cc1OC` (configuration not stated), the GI50 in [1] is 27.2 µM (inactive); in [2], 36 µM (inactive); in assay [3], 76.9 µM (inactive); in [4] it was 20.2 µM (inactive); in [5] it was 45.5 µM (inactive); in assay [6] it was 32.2 µM (inactive). The GI50 is 21.8 µM (inactive) in [7]; 70.8 µM (inactive) in assay [8]; 2.94 µM (inactive) in assay [9]; 29.2 µM (inactive) in [10]; 25.8 µM (inactive) in [11]; 18.9 µM (inactive) in assay [12]. The GI50 was 27.3 µM (inactive) in [13]; 34 µM (inactive) in [14]; > 100 µM (inactive) in [15]; 1.11 µM (active) in assay [16]; 63.5 µM (inactive) in [17]; 36.2 µM (inactive) in assay [18].
With `NC1CCC(N(CC(=O)O)CC(=O)O)C(N(CC(=O)O)CC(=O)O)C1` (configuration not stated), the GI50 in assay [1], in [2], in [4], in [5], in assay [6] and in assay [7] was > 100 µM (inactive) each time. Moreover, the GI50 in assay [8], in [9], in assay [10], in assay [11], in assay [12] and in assay [13] was > 100 µM (inactive) in each case. Besides, the GI50 in assay [19], in assay [14], in assay [15], in assay [16], in assay [17] and in assay [18] was > 100 µM (inactive) in each case.
With `O=C(CNc1ccc(Cl)cc1Cl)Nn1c(-c2ccccc2)nc2ccccc2c1=O`, the GI50 was 30.5 µM (inactive) in assay [1]; 14.5 µM (inactive) in assay [2]; 19.2 µM (inactive) in [3]; 16.7 µM (inactive) in assay [4]; > 10 µM (inactive) in assay [5]; 13.4 µM (inactive) in [6]. Also, the GI50 in assay [7] is 14.9 µM (inactive); in [8], 15.9 µM (inactive); in assay [9], 5.14 µM (inactive); in assay [10] it was 15.7 µM (inactive); in assay [11] it was 12 µM (inactive); in assay [12], 17 µM (inactive). The GI50 in [13] was 13.9 µM (inactive); in [19], 35 µM (inactive); in [14], 18.9 µM (inactive); in assay [15], 16.1 µM (inactive); in assay [16], 13.9 µM (inactive); in [17] it was 19.5 µM (inactive). For the same compound, the GI50 in assay [18] is > 10 µM (inactive).
For `Nc1c2ccccc2nc2ccc3c(=O)cc(-c4ccccc4)oc3c12`, the GI50 in assay [1] is 1.4 µM (inactive); in [2], 1.75 µM (inactive); in assay [3] it was 1.34 µM (inactive); in assay [4], 0.299 µM (active); in [5], 0.94 µM (active); in [6], 0.649 µM (active). Further, the GI50 was 1.27 µM (inactive) in [7]; 0.815 µM (active) in assay [8]; 0.435 µM (active) in assay [9]; 0.646 µM (active) in assay [10]; 1.25 µM (inactive) in [11]; 1.42 µM (inactive) in [12]. In addition, the GI50 is 0.426 µM (active) in [13]; 0.611 µM (active) in assay [19]; 1.32 µM (inactive) in [14]; 0.979 µM (active) in assay [15]; 0.393 µM (active) in assay [16]; 2.07 µM (inactive) in [17]. In assay [18], the GI50 is 0.531 µM (active).
In the case of `COc1ccccc1NC(=O)CC(=O)NN`, the GI50 in [1], in assay [2], in [3], in assay [4], in assay [5] and in assay [6] was > 100 µM (inactive) in each case. Besides, the GI50 in assay [7], in assay [8], in assay [9], in assay [10], in assay [11] and in assay [12] was > 100 µM (inactive) throughout. For the same compound, the GI50 in assay [13], in assay [19], in assay [14], in assay [15], in assay [16] and in [17] was > 100 µM (inactive) each time. Also, the GI50 in [18] is > 100 µM (inactive).
Regarding `COC(=O)C1SC(N(C)c2ccccc2)=NC12c1ccccc1Nc1ccccc12` (configuration not stated), the GI50 is 20.3 µM (inactive) in assay [1]; 25.7 µM (inactive) in assay [2]; 22.8 µM (inactive) in [3]; 23.3 µM (inactive) in [4]; 33.8 µM (inactive) in assay [5]; 22 µM (inactive) in assay [6]. For the same compound, the GI50 was 17.6 µM (inactive) in assay [7]; 23.1 µM (inactive) in [8]; 7.31 µM (inactive) in assay [9]; 10.8 µM (inactive) in assay [10]; 13.4 µM (inactive) in [11]; 11 µM (inactive) in assay [12]. For the same compound, the GI50 in assay [13] was 19.7 µM (inactive); in [19] it was 8.89 µM (inactive); in [14] it was 31.3 µM (inactive); in assay [15], 22.4 µM (inactive); in [16], 15.3 µM (inactive); in [17], 29.8 µM (inactive). Moreover, the GI50 in assay [18] was 27.5 µM (inactive).
As to `Nc1nc(N)c2c3c(cnc2n1)CC(c1ccccc1)CC3` (configuration not stated), the GI50 was 2.03 µM (inactive) in assay [1]; 25.4 µM (inactive) in assay [2]; 11.2 µM (inactive) in assay [3]; 2.86 µM (inactive) in assay [4]; 21.6 µM (inactive) in [5]; 11.7 µM (inactive) in assay [6]. Also, the GI50 in assay [7] is 6.76 µM (inactive); in [8] it was 3.7 µM (inactive); in [9], 50.5 µM (inactive); in assay [10], 3.66 µM (inactive); in assay [11] it was 14.4 µM (inactive); in assay [12], 31 µM (inactive). Further, the GI50 is 14.3 µM (inactive) in assay [13]; 7.16 µM (inactive) in assay [19]; 17.7 µM (inactive) in [14]; 17.3 µM (inactive) in assay [15]; 10.6 µM (inactive) in assay [16]; 21.7 µM (inactive) in [17]. For the same compound, the GI50 in assay [18] is 10.7 µM (inactive).
On to `CCCCCc1cc(CCCC)sc1-c1ccco1`, for which the GI50 in assay [1] is 40 µM (inactive); in assay [2], > 100 µM (inactive); in [3] it was > 87.1 µM (inactive); in assay [4], 29.6 µM (inactive); in [5] it was > 100 µM (inactive); in assay [6], 76.4 µM (inactive). In addition, the GI50 in [7] is 66.5 µM (inactive); in [8] it was > 80.5 µM (inactive); in [9], 51.9 µM (inactive); in [10] it was > 100 µM (inactive); in assay [11], > 100 µM (inactive); in [12] it was > 74.8 µM (inactive). Also, the GI50 in assay [13] was > 100 µM (inactive); in [19], > 100 µM (inactive); in [14], 45.8 µM (inactive); in assay [15] it was > 100 µM (inactive); in assay [16], 44.2 µM (inactive); in assay [17], > 100 µM (inactive). In assay [18], the GI50 is > 76.7 µM (inactive).
As for `COc1cc2c(cc1OC)C(=O)N(c1ccc(O)cc1)C2=O`, the GI50 in assay [1] is > 100 µM (inactive); in [2], > 100 µM (inactive); in assay [3], > 100 µM (inactive); in assay [4], > 100 µM (inactive); in [5] it was > 100 µM (inactive); in assay [6], < 0.01 µM (active). Moreover, the GI50 in [7], in assay [8], in assay [9], in assay [10], in assay [11] and in [12] was > 100 µM (inactive) throughout. Besides, the GI50 in [13], in [19], in assay [14], in [15], in assay [16] and in assay [17] was > 100 µM (inactive) throughout. Also, the GI50 in assay [18] was > 100 µM (inactive).
For `NC(=O)CNC(=O)[C@@H]1CC(OCCC(=O)O)CN1C(=O)C1CCCN1C(=O)OCc1ccccc1` (some centres not stated), the GI50 in assay [1] was > 100 µM (inactive); in [2], > 100 µM (inactive); in assay [3], 2.74 µM (inactive); in [4], > 100 µM (inactive); in assay [5], > 100 µM (inactive); in [6], > 100 µM (inactive). Moreover, the GI50 in assay [7], in [8], in assay [9], in [10], in assay [11] and in assay [12] was > 100 µM (inactive) in each case. The GI50 in assay [13], in [19], in assay [14], in [15], in assay [16] and in [17] was > 100 µM (inactive) in each case. Moreover, the GI50 in [18] is > 100 µM (inactive).
Consider `CCN1CCN(c2nc3ccccc3c3c2CCOc2ccccc2-3)CC1`, for which the GI50 in assay [1] is 45.8 µM (inactive); in assay [2], > 31.6 µM (inactive); in assay [3], > 100 µM (inactive); in assay [4], 29.3 µM (inactive); in assay [5], 46.7 µM (inactive); in assay [6] it was > 39.8 µM (inactive). Moreover, the GI50 in [7] is 24.9 µM (inactive); in [8] it was 25.7 µM (inactive); in assay [9], 10.6 µM (inactive); in [10] it was 27.2 µM (inactive); in assay [11], 26.4 µM (inactive); in assay [12], > 69 µM (inactive). Further, the GI50 in assay [13] is > 53.2 µM (inactive); in assay [19] it was > 45.1 µM (inactive); in assay [14], 25.2 µM (inactive); in assay [15], > 55.3 µM (inactive); in [16], 2.85 µM (inactive); in assay [17], 39.5 µM (inactive). The GI50 in [18] is 32.9 µM (inactive).
